Measured values taken from US4898861A, “Method for inhibiting the proliferation of tumor cells” (Hoffmann-La Roche Inc., priority 1988, dated 1990).
Where two headings read alike, the source gives them in different places.

Columns and labels:
[1] = tested on: DS 19 Friend erythroleukemia cell line (FEL); assay: Induction of differentiation of FEL cells (hemoglobin synthesis, benzidine staining); assay type: cell-based, mouse; settings: for EC20 / EC10 / EC50: Mus musculus, 120 h, 5 days; for EC20: read-out: ED20 (concentration required to induce 20% of the FEL cells); for EC10: read-out: ED10 (concentration required to induce 10% of the FEL cells); for EC50: read-out: ED50 (concentration required to induce 50% of the FEL cells)
Protocol: A DS 19 Friend erythroleukemia cell line (FEL) was utilized as the model for studying the effects of various benzodiazepines on cellular differentiation. The Friend lines were derived from mouse (DBA/2) spleen cells infected by the Friend virus complex. The FEL cells are a widely used model system for studying differentiation. […] The protocol utilized consisted of the benzidine staining method. Cells were seeded at 1×10^4 ml and incubated with inducers in Coster Culture Clusters ([…]) for 5 days. On the 5th day, two hundred (200) μl aliquots of cells were mixed with 100 μl of 0.2% benzidine dihydrochloride in 0.5N acetic acid with 1% of 30% H2 O2. Cells that stained blue were scored in a hemacytometer as a % of total cell number.
(§1) Of twenty five (25) of the benzodiazepines tested it was observed that sixteen induced differentiation (weakly to strongly active) in a concentration-dependent manner. The concentration of each compound required to induce 50%, 20% or 10% of the FEL cells along with the half-maximal concentrations for each compound required to inhibit 50% of the binding of 7-chloro-5-(4-chlorophenyl)-1,3-dihydro-1-methyl-2H-1,4-benzodiazepine-2-one to the FEL cells (IC50) is listed in the following table: […]

[2] = target: T1, peripheral-type benzodiazepine sites on FEL cells (Mus musculus, UniProt P50637); assay: Inhibition of binding of 7-chloro-5-(4-chlorophenyl)-1,3-dihydro-1-methyl-2H-1,4-benzodiazepine-2-one to FEL cells
T1 construct: endogenous in cells; host or cells: DS 19 Friend erythroleukemia cell line (FEL)
Text: as §1

[3] = target: T2, peripheral binding site on thymoma cells (Mus musculus, UniProt P50637); assay: Inhibition of tritiated diazepam binding to thymoma cells
T2 construct: host or cells: AKR mouse thymoma line BW 5147.6.1.4.Oua^r.1; (washed cells in BGS buffer)

Swiss 3T3 cells = settings: Clarke and Ryan, Nature 287, 160-161 (1980), read-out: ED50 (inhibition of proliferation); cited from earlier work
[4] = target: T2, peripheral binding site on thymoma cells; assay: Binding of tritiated 7-chloro-5-(4-chlorophenyl)-1,3-dihydro-1-methyl-2H-1,4-benzodiazepin-2-one to thymoma cells (saturation, association, dissociation)
Protocol: Thymoma cells, AKR mouse thymoma line, BW 5147.6.1.4.Oua^r.1.(Cell Distribution Center, Salk Institute, San Diego, Calif.), were grown in Iscove's Modified Dulbecco's Medium (IMDM) containing 5 percent fetal calf serum, collected by centrifugation at 100×g and washed in Balanced Glucose Salt (BGS) buffer, the composition of which is: KCl, 5.0 mM; NaCl, 120.0 mM; Na2 HPO4, 5.0 mM; Tris, 5.0 mM; CaCl2, 0.6 mM; MgSO4, 1.0 mM and glucose, 5.5 mM with a final pH of 7.4. Incubation and binding of tritiated 7-chloro-5-(4-chlorophenyl)-1,3-dihydro-1-methyl-2H-1,4-benzodiazepin-2-one to thymoma cells was carried out in BGS buffer at 0° C. for 40 minutes with the indicated concentrations of labeled ligand. To assay the binding, the rapid filtration method was utilized as outlined in the article of Taniguchi et al., Life Science, 27, 171-178 (1980) and 10 μM of unlabeled diazepam was used as the competitive inhibitor of binding to determine the nonspecific binding. A Saturation and Scratchard plot of the binding data using least square fit to define the regression line (r=0.97) was utilized (FIG. 1 and Insert).

[5] = FEL cells, compounds 1-12, read-out: IC50 (inhibition of binding to FEL cells)
[6] = FEL cells, compounds 13-16, in μM, read-out: IC50 (inhibition of binding to FEL cells)
[7] = stereoisomers, equivalent IC50's, read-out: IC50

T2 sequence (P50637 whole entry): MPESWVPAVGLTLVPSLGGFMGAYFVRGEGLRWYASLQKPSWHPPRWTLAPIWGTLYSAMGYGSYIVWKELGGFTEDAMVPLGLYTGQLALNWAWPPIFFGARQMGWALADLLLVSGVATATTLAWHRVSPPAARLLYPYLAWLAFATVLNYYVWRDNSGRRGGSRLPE
T1 sequence (P50637 whole entry): as above

## CN1C(=O)CN=C(c2ccc(F)cc2)c2ccccc21 [Compound 12, 1-methyl-5-(4-fluorophenyl)-3H--1,4-benzodiazepin-2(1H)--one]
[1]
  EC20: 100000 nM
[2]; [5]
  IC50: 0.327 µM

## CN1C(=O)CN=C(c2ccc(Cl)cc2)c2ccccc21 [Compound 8, 5-(4-chlorophenyl)-1-methyl-3H--1,4-benzodiazepin-2(1H)--one]
[1]
  EC20: 30000 nM
[2]; [5]
  IC50: 0.054 µM

## CN1C(=O)CN=C(c2ccccc2F)c2cc([N+](=O)[O-])ccc21 [Compound 13, 5-(2-fluorophenyl)-1,3-dihydro-1-methyl-7-nitro-2H--1,4-benzodiazepin-2-one]
[1]
  EC10: 32000 nM
[2]; [6]
  IC50: 0.08 µM

## COc1ccc(C2=NCC(=O)N(C)c3ccc(Cl)cc32)cc1 [Compound 3, 7-chloro-5-(4-methoxyphenyl)-1-methyl-3H--1,4-benzodiazepin-2-one]
[1]
  EC50: 33000 nM
[2]; [5]
  IC50: 0.015 µM

## O=C1CN=C(c2ccccc2Cl)c2cc([N+](=O)[O-])ccc2N1 [clonazepam, reference compound]
[3]; 10 μM final concentration
  inhibition of tritiated diazepam binding: did not inhibit diazepam binding

## CN1C(=O)CN=C(c2ccc(O)cc2)c2cc(Cl)ccc21 [Compound 2, 7-chloro-1,3-dihydro-5-(4-hydroxyphenyl)-1-methyl-2H--1,4-benzodiazepin-2-one]
[1]
  EC50: 20000 nM
[2]; [5]
  IC50: 0.1 µM

## CN1C(=O)CN=C(c2ccccc2Cl)c2ccccc21 [Compound 15, 5-(2-chlorophenyl)-1-methyl-3H--1,4-benzodiazepin-2(1H)--one]
[1]
  EC10: 60000 nM
[2]; [6]
  IC50: 0.175 µM

## C[C@@H]1N=C(c2ccccc2F)c2cc([N+](=O)[O-])ccc2N(C)C1=O [Compound 1, (+)-5-(2-fluorophenyl)-1,3-dihydro-1,3-dimethyl-7-nitro-2H--1,4-benzodiazepin-2-one]
[1]
  induction of differentiation (in words): most potent inducer tested
  EC50: 9000 nM
[2]; [5]
  IC50: 1.1 µM
[2]; [7]
  IC50: ~1 µM

## CN1C(=O)CN=C(c2ccccc2)c2cc(Cl)ccc21 [Compound 4, diazepam, reference compound]
[1]
  EC50: 55000 nM
Swiss 3T3 cells
  IC50: ~30000 nM
[2]; IC50 (inhibition of binding to FEL cells), FEL cells, compounds 1-12
  IC50: 0.079 µM

## C[C@H]1N=C(c2ccccc2F)c2cc([N+](=O)[O-])ccc2N(C)C1=O [Compound 9, (-)-5-(2-fluorophenyl)-1,3-dihydro-1,3-dimethyl-7-nitro-2H--1,4-benzodiazepin-2-one]
[1]
  induction of differentiation (in words): moderately active
  EC20: 86000 nM
[2]; [5]
  IC50: 1.04 µM
[2]; [7]
  IC50: ~1 µM

## CN1C(=O)CN=C(c2ccc(Cl)cc2)c2cc(Cl)ccc21 [7-chloro-5-(4-chlorophenyl)-1,3-dihydro-1-methyl-2H-1,4-benzodiazepin-2-one]
[4]
  Kd: 4.4 ± 1.1 nM
[4]; 0° C.
  time of incubation to reach binding plateau: 30 min
[4]; saturation plot, BGS buffer, 0° C., 40 minutes, mean±s.e., n=5
  maximum amount of ligand bound (Bmax): 477±98 fmoles per 10^6 cells

## CN1C(=O)CN=C(c2ccccc2Cl)c2cc(Cl)ccc21 [Compound 16, 7-chloro-5-(2-chlorophenyl)-1,3-dihydro-1-methyl-2H--1,4-benzodiazepin-2-one]
[1]
  EC10: 60000 nM
[2]; [6]
  IC50: 0.011 µM

## CN1C(=O)CN=C(c2ccc(Cl)cc2)c2cc(Cl)ccc21 [Compound 10, 7-chloro-5-(4-chlorophenyl)-1,3-dihydro-1-methyl-2H--1,4-benzodiazepin-2-one]
[1]
  EC20: 28000 nM
[2]; [5]
  IC50: 0.006 µM
[3]; 200 nM unlabeled compound
  inhibition of tritiated diazepam binding: completely inhibit the binding of tritiated diazepam

## CN1C(=O)CN=C(c2ccccc2)c2ccccc21 [Compound 6, 1,3-dihydro-1-methyl-5-phenyl-2H--1,4-benzodiazepin-2-one]
[1]
  EC50: 80000 nM
[2]; [5]
  IC50: 0.704 µM

## CN1C(=O)C(O)N=C(c2ccccc2)c2cc(Cl)ccc21 (stereo not drawn) [Compound 5, 7-chloro-1,3-dihydro-3-hydroxy-1-methyl-5-phenyl-2H--1,4-benzodiazepin-2-one]
[1]
  EC50: 80000 nM
[2]; [5]
  IC50: 0.236 µM

## CN1C(=O)C(O)N=C(c2ccc(Cl)cc2)c2cc(Cl)ccc21 (stereo not drawn) [Compound 11, 7-chloro-5-(4-chlorophenyl)-3-hydroxy-1,3-dihydro-1-methyl-2H--1,4-benzodiazepin-2-one]
[1]
  EC20: 45000 nM
[2]; [5]
  IC50: 0.02 µM

## CN1C(=O)CN=C(c2ccc(Cl)cc2)c2cc([N+](=O)[O-])ccc21 [Compound 14, 5-(4-chlorophenyl)-1-methyl-7-nitro-3H--1,4-benzodiazepin-2(1H)--one]
[1]
  EC10: 60000 nM
[2]; [6]
  IC50: 0.034 µM

## CN1C(=O)CN=C(c2ccc(Cl)cc2)c2cc(F)ccc21 [Compound 7, 5-(4-chlorophenyl)-7-fluoro-1-methyl-3H--1,4-benzodiazepin-2(1H)--one]
[1]
  EC20: 34000 nM
[2]; [5]
  IC50: 0.013 µM
